Reference: patent US20190365760A1, “A THERAPEUTIC OR PROPHYLACTIC AGENT FOR ISCHEMIC DISEASE, GLAUCOMA, OPTIC NERVE DISEASE, RETINAL DEGENERATIVE DISEASE, ANGIOGENIC RETINAL DISEASE, CANCER, NEURODEGENERATIVE OR AUTOIMMUNE DISEASE, AND A HYPOXIA INDUCING FACTOR INHIBITOR” (KEIO UNIVERSITY, priority 2016, published 2019)

How the values were obtained:
HIF [1] = assay: HIF reporter assay (HIF-activity-dependent Firefly-Luciferase) in 661W cells with CoCl2; assay type: cell-based, mouse; details: for HIF activity (HIF inhibitory activity): CoCl2 200 μM, luminescence 24 hours after CoCl2; for cytotoxicity (endogenous control CMV-Renilla-Luciferase activity): CoCl2
Description: (§1) The HIF-activity-dependent Firefly-Luciferase and endogenous control CMV-Renilla-Luciferase were both transgenic into mouse fibroblast cell line (NIH3T3) and mouse retinal […] cell line (661 W) using lentiviruses to generate stable expression lines. HIF can be stabilized by adding cobalt chloride (CoCl2), a PHD inhibitor, to the cells, and luciferin can be added to obtain a luminescent signal correlating with HIF activity. Samples of various natural products were added to the cells to confirm the HIF inhibitory effect of the candidate on cobalt chloride-induced HIF activity.
(§2) Specifically, 1×10^4 of NIH3T3 cells and 0.8×10^4 of 661 W cells were seeded on a 96-well plate with the above cell lines. After cells were engrafted to the bottom of the plate, HIF-activity was induced by adding CoCl2 at 200 μM. The luminescence strength was measured 24 hours after the CoCl2 was added using a Dual-Glo Luciferase assay system manufactured by Promega Corporation. The candidates were added at the same time as the of the CoCl2.

HIF [2] = assay: HIF reporter assay (HIF-activity-dependent Firefly-Luciferase) in NIH3T3 cells with CoCl2; assay type: cell-based, mouse; details: for HIF activity (HIF inhibitory activity): CoCl2 200 μM, luminescence 24 hours after CoCl2; for cytotoxicity (endogenous control CMV-Renilla-Luciferase activity): CoCl2
Description: as §1, §2

HIF [3] = assay: HIF reporter assay in ARPE19 cells with CoCl2; assay type: cell-based
Description: as §1, §2
Halofuginone, a halogenated derivative of ferbrifudine in Hydrangea macrophylla, was used as a sample to measure HIF activity on 661W cells, 3T3 cells, or ARPE19 cells in the assays described above. […] In FIGS. 11 to 13, “CoCl2+HF” indicates a system in which CoCl2 are added to the cells. […]

bnip3 gene = assay: Real-time PCR gene expression in 661W cells with CoCl2; assay type: cell-based, mouse; details: CoCl2 200 μM, four hours after adding halofuginone
Description: (§3) In the system of 661W cells to which the CoCl2 was added, the expression levels of the respective genes were measured in order to examine the inhibitory effects of halofuginone on the hif gene induced by the CoCl2 and the bnip3 gene, glut1 gene, pdk1 gene, and vegf gene which are the downstream genes. The expression level was measured by Real-time PCR. Specifically, 3×10^4 of 661 W cells were seeded on a 24-well plate, and CoCl2 was added at a density of 200 μM after cell immobilization. Halofuginone was added at the concentrations shown in FIG. 14 simultaneously with CoCl2. Four hours after adding halofuginone, RNAs were extracted, cDNA was synthesized, and then Real-time PCR was performed to determine the expression levels of the respective genes.

glut1 gene = assay: as above; assay type: cell-based, mouse; details: CoCl2 200 μM, four hours after adding halofuginone
Description: as §3

pdk1 gene = assay: as above; assay type: cell-based, mouse; details: CoCl2 200 μM, four hours after adding halofuginone
Description: as §3

[4] = test system: Mouse Retinal Photoinjury Model; assay: Mouse retinal photoinjury model, electroretinography; assay type: in vivo, BALB/c mice; details: 0.4 mg/kg intraperitoneally once daily for 5 days, white LED 3000 lux 1 hour, compared with PBS group
Description: First, 0.4 mg/kg of halofuginone solution dissolved in PBS was administered intraperitoneally once daily to BALB/c mice 8 weeks old for 5 consecutive days (halofuginone group; n=4). The control group received the same amount of PBS (phosphate buffered saline) intraperitoneally (n=4) for the same period of time. Dark adaptation was performed on day 4 of the above period and then on day 5 a white LED of 3000 lux was irradiated for 1 hour. Dark adaptation was performed on day 6 after the light irradiation, and electroretinography was performed on day 7.

[5] = test system: Mouse Retinal Ischemia-Reperfusion Model; assay: Mouse retinal ischemia-reperfusion model, visual evoked potential (VEP); assay type: in vivo, C57BL6J mice; details: 0.2 mg/kg intraperitoneally, 1 Hz flashing light 3 cds/m^2
Description: (§4) First, 0.2 mg/kg of halofuginone solution dissolved in PBS was administered intraperitoneally once daily to C57BL6J mice 8 weeks old (male; manufactured by Crea Japan) for 7 consecutive days (Halofuginone group; n=4). The control group received the same dose of PBS intraperitoneally for the same period (n=4).
(§5) Retinal ischemia reperfusion treatment was then performed as follows.
(§6) Nine-week-old mice were administered intraperitoneal anesthetics (three mixtures: medetomidine 0.75 mg/kg, midazolam 4 mg/kg, and butorphanol 5 mg/kg; hereinafter referred to as “MMB”). At the same time as anesthesia, Midrin P ophthalmic solution (Santen Pharmaceutical Co., Ltd.) was used to dilate both eyes.
(§7) The physiological saline infusion bags were fixed at a height of 1.5 m from the laboratory table, inserted into the anterior chamber of the right eye of the mice with 35 G needles perfused with physiological saline, and perfusion was started. Intraocular pressure was measured every 5 minutes (Tonolab hand-held tonometer; manufactured by icare Corporation) to confirm that intraocular pressure was maintained at 85-99 mm Hg. […]
The VEPs of the same individuals were then measured continuously. […]
Differences (P1-N1) from each first negative crest to the next positive crest were measured as amplitudes, and latencies were also measured, and the mean of two times was evaluated as the value of one individual.

[6] = test system: Mouse Retinal Ischemia-Reperfusion Model; assay: Mouse retinal ischemia-reperfusion model, optical coherence tomography (OCT); assay type: in vivo, C57BL6J mice; details: 0.2 mg/kg intraperitoneally, radius 250 μm from optic nerve head
Description: as §4, §5, §6, §7
The entire thickness of the retina was evaluated using OCTs in order to measure the total thickness of the retina in the In vivo.
Mice were fixed under MMB anesthesia and the total retinal thickness centered on the optic papilla was measured. […]

[7] = test system: mouse ganglion cell disorder model; details: vitreous administration of N-methyl-D-aspartic acid; previously reported by the inventors; cited from earlier work

| Compound | HIF activity (HIF inhibitory activity) (HIF [1]) | HIF activity (HIF inhibitory activity) (HIF [2]) | HIF activity (HIF inhibitory activity) (HIF [3]) | expression level of the bnip3 gene (bnip3 gene) | expression level of the glut1 gene (glut1 gene) | expression level of the pdk1 gene (pdk1 gene) | electroretinography amplitude (dark-adapted and light-adapted) [4] | VEP amplitude (P1-N1) [5] [μV] | total thickness of the retina by OCT [6] [μm] | neuroprotective effect [7] | cytotoxicity (endogenous control CMV-Renilla-Luciferase activity) (HIF [1]) | cytotoxicity (endogenous control CMV-Renilla-Luciferase activity) (HIF [2]) |
| --- | --- | --- | --- | --- | --- | --- | --- | --- | --- | --- | --- | --- |
| O=C(C[C@@H]1NCCC[C@H]1O)Cn1cnc2cc(Br)c(Cl)cc2c1=O [halofuginone] | significant level-dependent HIF inhibitory activity | significant level-dependent HIF inhibitory activity | significant level-dependent HIF inhibitory activity | decreased | decreased | decreased | decrease in amplitude was suppressed | 92±10.9 | 251.9±7.2 | neuroprotective effect | – | – |
| CC[C@@]1(O)C(=O)OCc2c1cc1n(c2=O)Cc2cc3c(CN(C)C)c(O)ccc3nc2-1 [topotecan] | – | – | – | – | – | – | – | – | – | – | without cytotoxicity | without cytotoxicity |
| COc1cccc2c1C(=O)c1c(O)c3c(c(O)c1C2=O)C[C@@](O)(C(=O)CO)C[C@@H]3O[C@H]1C[C@H](N)[C@H](O)[C@H](C)O1 [doxorubicin] | significantly decreased | significantly decreased | – | – | – | – | – | – | – | – | without cytotoxicity | without cytotoxicity |
